# According to paper PMC3480206 (Future microbiology, 2012):
# Where two headings read alike, the source gives them in different places.
# Key:
# [1] = tested on: Mycobacterium tuberculosis H37Rv; settings: cited from earlier work
# [2] = tested on: Mtb; settings: EBA study; cited from earlier work
# [3] = tested on: Mtb; settings: versus linezolid; cited from earlier work
# [4] = tested on: Mtb; settings: in vitro; cited from earlier work
# [5] = tested on: Mtb; settings: mouse model of TB; cited from earlier work
# [6] = in vivo; cited from earlier work
# [7] = tested on: Mycobacterium tuberculosis H37Rv; assay: In vitro drug interaction, checkerboard titration by 96-well microdilution; format: cell-based
# [8] = tested on: Mtb; settings: cited from earlier work
# [9] = tested on: Mtb; settings: cited from earlier work; remark: listed apart in the source
# [10] = tested on: Mtb; settings: cited from earlier work; remark: listed apart in the source
# [11] = tested on: Mtb; settings: at its MIC and at doses used to treat adult pulmonary TB; cited from earlier work
# [12] = tested on: Mtb gene clusters GC82 and GC120, iniBAC operon; settings: cited from earlier work
# [13] = tested on: Mtb; settings: cited from earlier work; remark: listed apart in the source
# [14] = PK evaluation on coadministration with second-line drugs; settings: mice, SQ109 and MXF coadministered
# [15] = tested on: Mtb; settings: cited from earlier work; remark: listed apart in the source
structure (smiles),measurement,setting,value
"CO[C@H]1/C=C/O[C@@]2(C)Oc3c(C)c(O)c4c(O)c(c(/C=N/N5CCN(C)CC5)c(O)c4c3C2=O)NC(=O)/C(C)=C\C=C\[C@H](C)[C@H](O)[C@@H](C)[C@@H](O)[C@@H](C)[C@H](OC(C)=O)[C@@H]1C [RIF, rifampicin, reference compound]",improvement of RIF activity,[1],eightfold
C[C@]1(COc2ccc(N3CCC(Oc4ccc(OC(F)(F)F)cc4)CC3)cc2)Cn2cc([N+](=O)[O-])nc2O1 [Delamanid],early bactericidal activity,[2],showed activity
CC(=O)NC[C@H]1CN(c2ccc(N3CCSCC3)c(F)c2)C(=O)O1 [Sutezolid],killing in ex vivo whole-blood culture test,[3],better time-dependent killing
same,antimycobacterial activity versus linezolid,[4],better antimycobacterial activity
same,antimycobacterial activity versus linezolid,[5],better antimycobacterial activity
same,safety profile,[6],improved safety profile compared with linezolid
CC(=O)NC[C@H]1CN(c2ccc(N3CCOCC3)c(F)c2)C(=O)O1 [linezolid],early bactericidal activity,[2],minimal killing activity
"CC(C)/N=c1\cc2n(-c3ccc(Cl)cc3)c3ccccc3nc-2cc1Nc1ccc(Cl)cc1 [CFZ, Clofazimine, reference compound]",MIC,"[7]; Mycobacterium tuberculosis, H37RV, read-out: MIC Alone",0.5 µg/mL
same,MIC Combination,"[7]; checkerboard SQ109 + CFZ, Mtb H37Rv",0.062 µg/mL
Cc1ncc([N+](=O)[O-])n1CCO [Metronidazole],efficacy in mouse models of latent TB,[8],not effective
"CC[C@@H](CO)NCCN[C@@H](CC)CO [EMB, ethambutol]",MIC on Mtb,[9],5 to 7 µg/mL
same,Effect on acid-fastness of Mtb,[10],Decreases
same,bacteriostatic or bactericidal,[11],bacteriostatic
same,Activity on Mtb gene clusters GC82 and GC120,[12],Upregulates
"COc1c(N2C[C@@H]3CCCN[C@@H]3C2)c(F)cc2c(=O)c(C(=O)O)cn(C3CC3)c12 [MXF, moxifloxacin, reference compound]",activity in mouse models,[13],comparable to INH
same,pharmacology profile on coadministration,[14],not affected
COc1c(N2CCNC(C)C2)c(F)cc2c(=O)c(C(=O)O)cn(C3CC3)c12 (stereo not drawn) [gatifloxacin],activity in mouse models,[13],comparable to INH
COc1nc2ccc(Br)cc2cc1[C@@H](c1ccccc1)[C@@](O)(CCN(C)C)c1cccc2ccccc12 [bedaquiline],postantibiotic effect,[15]; bedaquiline with SQ109,14 h
same,postantibiotic effect,[15]; bedaquiline without SQ109,9 h
same,improvement of the MIC of bedaquiline,[1],four- to eight-times
O=[N+]([O-])c1cn2c(n1)OC[C@@H](OCc1ccc(OC(F)(F)F)cc1)C2 [PA-824],early bactericidal activity,[2],showed activity
